The values below come from article PMC9055962 (RSC Advances, 2020).

Values after ≈ are worked out from the molar mass of the structure shown. Where only a bound is given, the exact number is not on record here.

One experiment deals with S. aureus ATCC 25923. Briefly: Broth microdilution MIC / MBC assay, S. aureus. Particulars: Staphylococcus aureus; for MIC: ATCC25923, 24 h, read-out: Antibacterial activity MIC; for MBC: ATCC25923, read-out: Antibacterial activity MBC. In kind it is cell-based.
A further experiment concerns E. coli ATCC 25922. Put plainly: Broth microdilution MIC / MBC assay, E. coli. The format is cell-based. Particulars: Escherichia coli; for MIC: ATCC25922, 24 h, read-out: Antibacterial activity MIC; for MBC: ATCC25922, read-out: Antibacterial activity MBC. In general terms: In broth dilution the organism is exposed to a series of concentrations in liquid medium.
In the next experiment the test system is S. aureus. To be noted: cited from earlier work.

In general, MIC refers to the least concentration at which growth counts as inhibited. The MBC is the smallest concentration meeting the test's criterion for killing. Take `CCn1cc(C(=O)O)c(=O)c2cc3c(cc21)OCO3` [OA, oxolinic acid]: in the experiment on S. aureus ATCC 25923, the minimal inhibitory concentration (MIC) amounted to 383 µM (≈ 100 µg/mL) and the MBC was over 766 µM. Besides, in the experiment on E. coli ATCC 25922, the MIC came to 3 µM (≈ 0.784 µg/mL) and the MBC amounted to 6 µM (≈ 1.57 µg/mL).

With WRWRWR, the “minimum inhibitory concentration (MIC)” value in the experiment on S. aureus is 16 µM.

Consider Fc-WRWRW, for which, in the experiment with S. aureus, the “minimum inhibitory concentration (MIC)” value was 7 µM.

Take `O=C(O)/C=C/c1ccc(O)c(O)c1` [CA, caffeic acid]: the minimal inhibitory concentration (MIC) with S. aureus ATCC 25923 and with E. coli ATCC 25922 was over 1110 µM throughout. Also, the MBC in the experiment with S. aureus ATCC 25923 and in the experiment on E. coli ATCC 25922 was over 1110 µM each time.
